Experimental data as given in US10653138B2, “Composition for attracting bed bugs” (London School of Hygiene & Tropical Medicine, priority 2015, dated 2020).

How the values were obtained:
bed bugs [1] = settings: cited from earlier work; for attraction of bed bugs to safe shelters: volatile components of aggregation pheromone
bed bug antennae = test: Coupled gas chromatography-electroantennography (GC-EAG) of volatile extract from bed bug-exposed paper; parameters: species or system Cimex lectularius; settings: for Responses Total: males plus females, 20 insects tested; for Responses Females: number of females giving an EAG response to the peak; for Responses Females / Responses Males: volatile extract 1 μL; for Responses Males: number of males giving an EAG response to the peak; for electroantennogram (EAG) response: result in words; for Visual inspection (no of responses) >5 / Visual inspection (no of responses) >10 / Visual inspection (no of responses) >15: threshold of individuals responding; for Visual inspection (no of responses) Response: total EAG responses, Table 8; for Electrophysiology Auto method: bullet = marked under the Auto method
From the text: Experimental insects, unless otherwise stated, were mated males and females of C. lectularius that had been fed 7 to 14 days previously on heparinised sheep blood. The electrodes used to make recordings were Ag/AgCl wires (diameter 0.37 mm) inserted into glass pipettes, made from borosilicate glass capillaries (outer diameter 2.0 mm; inner diameter 1.16 mm). The glass pipettes were filled with Ringers solution (7.55 g NaCl, 0.64 g KCl, 0.22 g CaCl2, 1.73 g MgCl2 g, 0.86 g NaHCO3 and 0.61 g Na3PO4 L^−1 water). The bed bug was then chilled on ice for one minute before dissection. Preparations were held in a continuous, humidified, charcoal filtered air flow ([…]) coming from a glass tube, which was positioned 5 mm from the antennal preparation. Once the antennal preparation and EAG equipment were in position the microscope light was switched off.
The GC used was a HP-680N, containing a HP-1 column (30 m×0.32 mm; film thickness, 0.52 μm) with a COC injector, hydrogen carrier gas and a FID. The oven temperature was maintained at 40° C. for two min and then programmed at 5° C. min^−1 to 100° C. and then at 10° C. […] to 250° C. The end of the column was inserted into the centre of the main air flow so that the eluent went over the antennal preparation. […] Amplification of the signals was set at ×10,000. Signals were analysed using the computer-based software package, EAD 2000 (Syntech®, The Netherlands). The volatile extract (1 μL) from an air entrainment of bed bug-exposed papers (see Example 1) was injected onto the column. A solution of n-alkanes (C7-C25, 1 μL of 100 ng μL^−1) in hexane was also analysed to calculate the retention indices (RI) of any EAG-active peaks for comparison with GC and coupled GC-MS traces (Equation 1).
Electroantennographic (EAG) responses from the coupled gas chromatography-electroantennographic (GC-EAG) analysis of the volatile extract collected using air entrainment were determined by visual appearance. Coupled GC-EAG traces were examined visually on a light box to identify EAG responses and match them to peaks on the GC traces. A combination of characteristics including the amplitude and shape of the deflection from the baseline were used to identify EAG responses. For example, an EAG response is usually of greater amplitude than the background noise and it has a characteristic negative deflection followed by a quick positive deflection resulting in a short sharp response often of similar shape and position as the corresponding peak on the GC trace. Responses were matched between males and females separately onto master traces for each sex. The EAG-active peaks were labelled from 1 to 21. Male and female master traces were then overlaid to identify where consistent responses occurred in both sexes. Five or more individuals responding at the same retention time on the GC trace was considered to be a consistent EAG response and the corresponding peak on the GC trace was considered to be EAG-active. Three thresholds were used: greater than 5, greater than 10 or greater than 15 individuals responding to the same GC peak or at the same retention time. The traces were then subjected to manual or automated statistical analysis.

bed bugs [2] = test: Behavioural bioassay, dose responses of individual chemicals (Example 8); format: in vivo, Cimex lectularius; settings: all doses 0.008× to 8000×
Description: Methods: The behavioural bioassay was as described by Weeks et al. 2011 and recorded using EthoVision and the methodology described by Weeks et al. 2013. For each chemical, (E)-2-octenal, (RS)-1-octen-3-ol and nonanal, seven doses were tested from 0.008× to 8000×, along with three controls. Each replicate was completed as a block of 10 treatments including: We are referring here to either 0.001×, 0.01×, 0.1×, 1×, 10×, 100× or 1000× the dose of (E)-2-octenal found naturally in the aggregation pheromone. For instance, an “8% solution” refers to an 8% dose of volatile extract (with the various different ratios of individual component). In each block the order of the treatments and the position of the odour pot were randomized. 10 blocks were completed for each chemical (n=10).

NCCc1c[nH]cn1 [histamine]
arrestment of bed bugs (bed bugs [1]; less-volatile component): causes their arrestment upon contact

CCCCOCCOCCOC(C)=O [2-(2-Butoxyethoxy)-acetate ethanol, 2-(2-butoxyethoxy)ethyl acetate]
Responses Total (bed bug antennae): 12
Responses Females (bed bug antennae): 5
Responses Males (bed bug antennae): 7
electroantennogram (EAG) response (bed bug antennae): EAG-active
Visual inspection (no of responses) >5 (bed bug antennae): • (>5)
Visual inspection (no of responses) >10 (bed bug antennae): • (>10)
Visual inspection (no of responses) Response (bed bug antennae): 12

CCCCCCCCC(C)=O [2-Decanone, 2-decanone]
Responses Total (bed bug antennae): 9
Responses Females (bed bug antennae): 4
Responses Males (bed bug antennae): 5
electroantennogram (EAG) response (bed bug antennae): EAG-active
Visual inspection (no of responses) >5 (bed bug antennae): • (>5)
Visual inspection (no of responses) Response (bed bug antennae): 9

C=C1/C=C/[C@H](C(C)C)CC/C(C)=C/CC1 [(S)-(−)-Germacrene D, (S)-(−)-germacrene D]
Responses Total (bed bug antennae): 14
Responses Females (bed bug antennae): 7
Responses Males (bed bug antennae): 7
electroantennogram (EAG) response (bed bug antennae): EAG-active
Visual inspection (no of responses) >5 (bed bug antennae): • (>5)
Visual inspection (no of responses) >10 (bed bug antennae): • (>10)
Visual inspection (no of responses) Response (bed bug antennae): 14

CCCCCCCCC(=O)O [Nonanoic acid, nonanoic acid]
Responses Total (bed bug antennae): 12
Responses Females (bed bug antennae): 6
Responses Males (bed bug antennae): 6
electroantennogram (EAG) response (bed bug antennae): EAG-active
Visual inspection (no of responses) >5 (bed bug antennae): • (>5)
Visual inspection (no of responses) >10 (bed bug antennae): • (>10)
Visual inspection (no of responses) Response (bed bug antennae): 12

CCCCCC=O (single isomer, unassigned) [Hexanal, hexanal]
Responses Total (bed bug antennae): 9
Responses Females (bed bug antennae): 4
Responses Males (bed bug antennae): 5
electroantennogram (EAG) response (bed bug antennae): EAG-active
Visual inspection (no of responses) >5 (bed bug antennae): • (>5)
Visual inspection (no of responses) Response (bed bug antennae): 9

CSSSC [dimethyl trisulfide]
attraction of bed bugs to safe shelters (bed bugs [1]): attract bed bugs to safe shelters

CCCCCCCC=O (single isomer, unassigned) [Octanal, octanal]
Electrophysiology Auto method (bed bug antennae): •
Responses Total (bed bug antennae): 19
Responses Females (bed bug antennae): 10
Responses Males (bed bug antennae): 9
electroantennogram (EAG) response (bed bug antennae): EAG-active
Visual inspection (no of responses) >5 (bed bug antennae): • (>5)
Visual inspection (no of responses) >10 (bed bug antennae): • (>10)
Visual inspection (no of responses) >15 (bed bug antennae): • (>15)
Visual inspection (no of responses) Response (bed bug antennae): 19

C=C1C=CC(C(C)C)CC1 (single isomer, unassigned) [β-Phellandrene, β-phellandrene]
Responses Total (bed bug antennae): 11
Responses Females (bed bug antennae): 6
Responses Males (bed bug antennae): 5
electroantennogram (EAG) response (bed bug antennae): EAG-active
Visual inspection (no of responses) >5 (bed bug antennae): • (>5)
Visual inspection (no of responses) >10 (bed bug antennae): • (>10)
Visual inspection (no of responses) Response (bed bug antennae): 11

CC/C=C/C=C/C(C)=O (single isomer, unassigned) [(3E,5E)-Octadien-2-one, (3E,5E)-octadien-2-one]
Electrophysiology Auto method (bed bug antennae): •
Responses Total (bed bug antennae): 13
Responses Females (bed bug antennae): 5
Responses Males (bed bug antennae): 8
electroantennogram (EAG) response (bed bug antennae): EAG-active
Visual inspection (no of responses) >5 (bed bug antennae): • (>5)
Visual inspection (no of responses) >10 (bed bug antennae): • (>10)
Visual inspection (no of responses) Response (bed bug antennae): 13

C=CC(O)CCCCC (racemic) [(RS)-1-Octen-3-ol, (RS)-1-octen-3-ol]
time spent above the odour pot compared to zero (bed bugs [2]): none of the (RS)-1-octen-3-ol doses resulted in significantly more
Responses Total (bed bug antennae): 11
Responses Females (bed bug antennae): 7
Responses Males (bed bug antennae): 4
electroantennogram (EAG) response (bed bug antennae): EAG-active
Visual inspection (no of responses) >5 (bed bug antennae): • (>5)
Visual inspection (no of responses) >10 (bed bug antennae): • (>10)
Visual inspection (no of responses) Response (bed bug antennae): 11

CCCCCCCCCCCC [Dodecane, dodecane]
Electrophysiology Auto method (bed bug antennae): •
Responses Total (bed bug antennae): 16
Responses Females (bed bug antennae): 8
Responses Males (bed bug antennae): 8
electroantennogram (EAG) response (bed bug antennae): EAG-active
Visual inspection (no of responses) >5 (bed bug antennae): • (>5)
Visual inspection (no of responses) >10 (bed bug antennae): • (>10)
Visual inspection (no of responses) >15 (bed bug antennae): • (>15)
Visual inspection (no of responses) Response (bed bug antennae): 16

CCCCCC/C=C/C=O [(E)-2-Nonenal, (E)-2-nonenal]
Electrophysiology Auto method (bed bug antennae): •
Responses Total (bed bug antennae): 13
Responses Females (bed bug antennae): 8
Responses Males (bed bug antennae): 5
electroantennogram (EAG) response (bed bug antennae): EAG-active
Visual inspection (no of responses) >5 (bed bug antennae): • (>5)
Visual inspection (no of responses) >10 (bed bug antennae): • (>10)
Visual inspection (no of responses) Response (bed bug antennae): 13

CSSC [dimethyl disulfide]
attraction of bed bugs to safe shelters (bed bugs [1]): attract bed bugs to safe shelters

CCCCCCCC/C=C/C=O [(E)-2-Undecenal, (E)-2-undecenal]
Responses Total (bed bug antennae): 9
Responses Females (bed bug antennae): 5
Responses Males (bed bug antennae): 4
electroantennogram (EAG) response (bed bug antennae): EAG-active
Visual inspection (no of responses) >5 (bed bug antennae): • (>5)
Visual inspection (no of responses) Response (bed bug antennae): 9

CCCCCCC=O (single isomer, unassigned) [Heptanal, heptanal]
Electrophysiology Auto method (bed bug antennae): •
Responses Total (bed bug antennae): 13
Responses Females (bed bug antennae): 7
Responses Males (bed bug antennae): 6
electroantennogram (EAG) response (bed bug antennae): EAG-active
Visual inspection (no of responses) >5 (bed bug antennae): • (>5)
Visual inspection (no of responses) >10 (bed bug antennae): • (>10)
Visual inspection (no of responses) Response (bed bug antennae): 13

O=Cc1ccccc1 (single isomer, unassigned) [Benzaldehyde, benzaldehyde]
Responses Total (bed bug antennae): 8
Responses Females (bed bug antennae): 3
Responses Males (bed bug antennae): 5
electroantennogram (EAG) response (bed bug antennae): EAG-active
Visual inspection (no of responses) >5 (bed bug antennae): • (>5)
Visual inspection (no of responses) Response (bed bug antennae): 8

CCCCCCCCCC=O [Decanal, decanal]
Responses Total (bed bug antennae): 12
Responses Females (bed bug antennae): 5
Responses Males (bed bug antennae): 7
electroantennogram (EAG) response (bed bug antennae): EAG-active
Visual inspection (no of responses) >5 (bed bug antennae): • (>5)
Visual inspection (no of responses) >10 (bed bug antennae): • (>10)
Visual inspection (no of responses) Response (bed bug antennae): 12

CCC/C=C/C=O [(E)-2-hexenal]
attraction of bed bugs to safe shelters (bed bugs [1]): attract bed bugs to safe shelters

CCCCC(C)=O [2-hexanone]
attraction of bed bugs to safe shelters (bed bugs [1]): attract bed bugs to safe shelters

CC1=CCC2C(C1)C2(C)C (single isomer, unassigned) [3-Carene, 3-carene]
Responses Total (bed bug antennae): 11
Responses Females (bed bug antennae): 7
Responses Males (bed bug antennae): 4
electroantennogram (EAG) response (bed bug antennae): EAG-active
Visual inspection (no of responses) >5 (bed bug antennae): • (>5)
Visual inspection (no of responses) >10 (bed bug antennae): • (>10)
Visual inspection (no of responses) Response (bed bug antennae): 11
